# Measured values from patent US9981983B2, “Thienopyranones as kinase inhibitors” (SignalRx Pharmaceuticals, Inc., priority 2008, dated 2018).
# Where two headings read alike, the source gives them in different places. Starred links: 1 amine or outer side, 2 acyl side, 3 side chain; linkers in the order of their positions; H or OH if unused. Positions of bridges follow the written chain, without caps; N, C: chain ends. Non-standard residues stand in square brackets, D forms with d. Residues, ends and D or L forms follow the SMILES beside them. Chains are numbered I, II in the order given. Actinocin(9to1) = Cc1c2oc3c(C)ccc(C(=O)[*:1])c3nc-2c(C(=O)[*:2])c(N)c1=O; NMeV = CN[C@H](C(=O)O)C(C)C; Sar = CNCC(=O)O
# Tests used:
# [1] = test system: pAKT serine 473 level in PC3 cells; assay: pAKT status in IGF-1 stimulated PC3 cells (Ser473 pAKT ELISA); type: cell-based; settings: Homo sapiens, PC-3
# Experimental: (§1) PC3 cells were obtained from the American Type Culture Collection (ATCC, Manassas, Va., Cat.# CRL-1435). Two million cells from the prostate cancer line PC3 were placed into 6 cm culture dishes and allowed to grow in complete RPMI 1640 media (Invitrogen, Carlsbad, Calif., Cat.#22400-105) with 10% fetal bovine serum (Invitrogen, Carlsbad, Calif., Cat.#10438-026). After this time period the cells were serum starved for 5 hours followed by application of the test compound. Test compound was added as a DMSO (dimethyl sulfoxide) solution such that the final DMSO concentration in the cell media was less than or equal to 0.2% by volume After 30 minutes of exposure the growth factor stimulant, human IGF-1 (PeproTech, Inc., Rocky Hill, N.J., Cat.#100-11), was added to a final concentration of 0.1 μg/ml in each well. After 30 minutes of IGF-1 exposure, cells were removed from the media and cell lysates were prepared using RIPA Lysis buffer (Upstate, Lake Placid, N.Y., Cat.#20-188), keeping on ice. The pAKT serine 473 level was measured in duplicate samples of the cell lysates using commercially available assays such as the Pathscan® Sandwich ELISA kit for Ser473 pAKT (Cell Signaling, Danvers, Mass., Cat.#7160). A SpectraMax Plus spectrophotometric plate reader (Molecular Devices, Sunnydale, Calif.) was used to measure the optical density signal for pAKT at 450 nm (OD450 nm). The pAKT OD450 nm readings were normalized by total protein amount in the cell lysates determined by standard methods.
# (§2) Concentrations of test compounds required to inhibit IGF stimulated pAKT levels to 50% of maximum levels in PC3 cells (termed DM50 for decreased maximum 50%) were calculated by inputting the dose responses in the software package GraphPad Prism4 (GraphPad Software, Inc., San Diego, Calif.).
# By these methods a number of compounds of the invention were evaluated and the concentration needed to reduce the detectable pAKT to 50% of the maximal uninhibited signal was calculated. These values (in μMolar units) are listed in Table 8 under the column heading PC3 pAKT IC50 (μMolar).
# [2] = test system: PC3 cells; assay: PC3 prostate cancer cell proliferation (WST); type: cell-based; settings: Homo sapiens, PC-3; 72 hours; read-out: IC50 PC3 Proliferation
# Experimental: (§3) PC3 cells were obtained from the American Type Culture Collection (ATCC, Manassas, Va., Cat.# CRL-1435) Two thousand cells from the prostate cancer line PC3 were placed in 50 μL of complete RPMI 1640 media (Invitrogen, Carlsbad, Calif., Cat.#22400-105) with 10% fetal bovine serum (Invitrogen, Carlsbad, Calif., Cat.#10438-026) into each well of 96 well cell culture plates in a hexaplicate sampling pattern. A 50 μL aliquot of test compound (prepared from stock test compounds in DMSO diluted into media) was added to the appropriate well such that the final concentrations of test compound were 200, 40, 8, 1.6, 0.32, 0.064, 0.0128, 0.00256, and 0 μM and the final DMSO concentration was less than or equal to 0.2%.
# (§4) The plates were incubated for 72 hours 37° C. in an atmosphere of 5% CO2. At the end of this time a 10 μL aliquot of WST solution (Roche Applied Science, Mannheim, Germany) was added into each of the wells. Cells were exposed to the WST solution for 4 hours. A SpectraMax Plus spectrophotometric plate reader (Molecular Devices, Sunnydale, Calif.) was then used to measure the optical density at 450 nm (OD450 nm). Sigmoidal curves were drawn for the dose responses and IC50 values were calculated using the software package GraphPad Prism4 (GraphPad Software, Inc., San Diego, Calif.).
# [3] = biological target: mTOR (Homo sapiens, UniProt P42345); assay: mTOR inhibition; type: biochemical
# [4] = test system: pAKT in H1299 cells; assay: pAKT status DM50, H1299; type: cell-based; settings: Homo sapiens, NCI-H1299; H1299, non-small cell lung cancer
# Experimental: as §1, §2
# (§5) Several other cancer cell lines were obtained from ATCC and grown according to the supplier's recommendations and treated with test compounds. DM50 values listed in Table 6 below were obtained by the methods described in Example A: […]
# [5] = test system: pAKT in BT-474 cells; assay: pAKT status DM50, BT-474; type: cell-based; settings: Homo sapiens; BT-474, breast cancer
# Experimental: as §1, §2, §5
# [6] = test system: pAKT in 786-O cells; assay: pAKT status DM50, 786-O; type: cell-based; settings: Homo sapiens, 786-0, renal cell carcinoma
# Experimental: as §1, §2, §5
# [7] = test system: H1299 cells; assay: Cellular proliferation (Example B method), H1299; type: cell-based; settings: Homo sapiens, NCI-H1299; H1299, non-small cell lung cancer
# Experimental: as §3, §4
# (§6) Several other cancer cell lines were obtained from ATCC and grown according to their recommendations and treated with test compounds to obtain the concentration of test compound that inhibited the cellular proliferation by 50% of no-treatment controls. These IC50 values (μM) are listed in Table 7 below obtained by the methods described in Example B: […]
# [8] = test system: BT-474 cells; assay: Cellular proliferation (Example B method), BT-474; type: cell-based; settings: Homo sapiens; BT-474, breast cancer
# Experimental: as §3, §4, §6
# [9] = test system: 786-O cells; assay: Cellular proliferation (Example B method), 786-O; type: cell-based; settings: Homo sapiens, 786-0, renal cell carcinoma
# Experimental: as §3, §4, §6
# [10] = test system: 786-0 cells; assay: Apoptosis in 786-0 cells (Annexin V / PI flow cytometry); type: cell-based; design: unit not given here
# Experimental: In order to evaluate the mechanism of action of these compounds, 786-0 cell cultures were treated with Cpd 9 or Cpd 28 at different concentrations overnight and then analyzed for apoptotic induction. The cells were stained using standard methods with Annexin V and/or Propedium iodine (PI) at room temperature for 15 minutes. Apoptotic cells at early (Annexin V positive) or late stage (both Annexin V and PI positive) were detected by Flow Cytometry.
# [11] = test system: 786-0 renal cell carcinoma xenograft; assay: 786-0 renal cell carcinoma xenograft mouse model; type: in vivo, nude mice; settings: 25 mg/kg, ip, 3×/wk
# Experimental: To determine if Cpd 9 has anti-tumor effects, an in vivo study was conducted in a 786-0 renal cell carcinoma xenograft model, 786-0 cells (2×10^6) were inoculated subcutaneously into nude mice in the flank area and tumor growth was monitored with calipers via external measurements. Tumor volume was calculated using the formula volume=(length×width^2)/2. When the average tumor volume reached 400 mm^3, mice were randomly divided into 2 groups and treated with either DMSO (control) or Cpd 9 (25 mg/kg, ip) three times weekly (M, W, F) for two weeks.
# To determine if Cpd 28 has anti-tumor effects, an in vivo study was conducted in a 786-0 renal cell carcinoma xenograft model, 786-0 cells (2×10^6) were inoculated subcutaneously into nude mice in the flank area and tumor growth was monitored with calipers via external measurements. Tumor volume was calculated using the formula volume=(length×width^2)/2. Treatment was started when tumors reached an average volume of 300 mm^3. […] DMSO was used as control since this was the vehicle the compounds were dissolved in. Tumor size was monitored twice weekly and body weight was monitored once weekly. Means and standard deviations were calculated and the Student t test method was used for statistical comparisons.
# [12] = test system: MCF7 breast cancer cells; assay: Mammosphere cancer stem cell inhibition assay; type: cell-based
# Experimental: A mammosphere cancer stem cell inhibition assay was set up using literature methods (T. M. Phillips et al. J. Natl. Cancer I. 2006, 98, 1777-1785, “Mammalian target of rapamycin contributes to the acquired apoptotic resistance of human mesothelioma multicellular spheroids”) using a subset of MCF7 breast cancer cells that posses the ability to evade anchorage independent apoptosis. Commercially available MCF7 breast cancer cells were cultured in MEM supplemented with 0.01 mg/mL of bovine insulin and 10% FBS at 37° C. in humidified atmosphere (5% CO2). Floating cells in the 2-day cultures were collected, washed, and resuspended in DMEM-F12 (50:50) supplemented with 0.4% BSA, 5 μg/mL bovine insulin, 20 ng/mL bFGF, and 10 ng/mL EGF. Cells were then passed through a […] sieve to remove any cell clusters and adjusted to a density of 10,000 cells/mL. Approximately 500 cells were plated in quadruplicate in a sterile poly-HEMA-treated 96-well plate. Cells were then treated with either control or test solutions consisting of the kinase inhibitor Lapatinib (1 μM), Cpd 28 (1 or 10 μM), Cpd 55 (1 or 10 μM), The numbers of mammospheres (clusters of cells numbering more than 4 or 5 per cluster) were then counted after 5-7 days.
# [13] = test system: breast cancer stem cells; settings: women with breast tumors with high HER2; decreased from 11%; cited from earlier work
# [14] = test system: AKT Ser473 phosphorylation in PC3 (prostate cancer) Cell Line; assay: pAKT Ser473 ELISA in PC3 cells stimulated by Bv8, VEGF, IGF; type: cell-based; settings: Homo sapiens, PC-3, PC3, read-out: Concentration Required to Inhibit pAKT to Half-maximal Levels
# Experimental: (§7) This was followed by the addition of IGF, VEGF and Bv8 to 0.1 μg/mL, 0.1 μg/mL and 2.5 μg/mL respectively for another 30 minutes before harvesting the cells and making cell lysates with RIPA buffer keeping on ice, pAKT levels were measured in duplicate samples with Cell Signaling's Ser473 pAKT ELISA kit. Optical density plate readings of pAKT levels were made at 450 nm (OD450 nm) and were normalized by total protein amount of the cell lysates. The dose of compound at which pAKT levels are reduced to 50% of the non-treatment level was calculated using GraphPad Prism4 software and is listed in Tables 4 and 5 below.
# [15] = test system: AKT Ser473 phosphorylation in renal cell carcinoma (786-O) Cell Line; assay: pAKT Ser473 ELISA in 786-O cells stimulated by Bv8, VEGF, IGF; type: cell-based; settings: Homo sapiens, 786-0, 786-O, read-out: Concentration Required to Inhibit pAKT to Half-maximal Levels
# Experimental: as §7
# [16] = IGF-1 stimulated PC3 cells, read-out: PC3 pAKT IC50
# [17] = 1 μM, separate experiment, control 32±6
smiles,measurement,setting,value
COc1ccc(C#Cc2csc3c(=O)cc(N4CCOCC4)oc23)cc1 [Compound 38],IC50,[1]; [16],363 nM
same,IC50,[2],8420 nM
"O=c1cc(N2CCOCC2)oc2c(-c3ccccc3)csc12 [Compound 6, 5-morpholino-3-phenyl-7H-thieno[3,2-b]pyran-7-one]",IC50,[3],610 nM
same,IC50,[1]; [16],550 nM
same,IC50,"[1]; PC3 cells, read-out: IC50 pAKT (Pathway Inhibition)",550 nM
same,IC50,[4],3190 nM
same,IC50,[5],1240 nM
same,IC50,[6],4170 nM
same,IC50,[7],5020 nM
same,IC50,[8],11600 nM
same,IC50,[9],9530 nM
"Cc1c2oc3c(C)ccc(C(=O)N[C@@H]4C(=O)N[C@H](C(C)C)C(=O)N5CCC[C@H]5C(=O)N(C)CC(=O)N(C)[C@@H](C(C)C)C(=O)O[C@@H]4C)c3nc-2c(C(=O)N[C@@H]2C(=O)N[C@H](C(C)C)C(=O)N3CCC[C@H]3C(=O)N(C)CC(=O)N(C)[C@@H](C(C)C)C(=O)O[C@@H]2C)c(N)c1=O [Actinomycin D, reference compound] (I: T[dV]P[Sar][NMeV] / II: T[dV]P[Sar][NMeV]; ester I:1-I:C, II:1-II:C; linker I:N-II:N via Actinocin(9to1))",Early stage apoptotic cells,[10]; 200 ng/mL,16.93
same,Late stage apoptotic cells,[10]; 200 ng/mL,12.63
same,Total Apoptotic Cells,[10]; 200 ng/mL,29.56
CN(C)c1ccc(-c2csc3c(=O)cc(N4CCOCC4)oc23)cc1 [Compound 9],IC50,[2],2010 nM
same,tumor growth reduction compared to control,"[11]; about two weeks, p<0.05",93%
same,body weight change or other abnormalities,[11]; two weeks,No significant body weight change or other abnormalities were observed
same,Early stage apoptotic cells,"[10]; 5 μM, overnight",7.76
same,Late stage apoptotic cells,"[10]; 5 μM, overnight",10.5
same,Total Apoptotic Cells,"[10]; 5 μM, overnight",18.26
same,Early stage apoptotic cells,"[10]; 10 μM, overnight",8.31
same,Late stage apoptotic cells,"[10]; 10 μM, overnight",11.62
same,Total Apoptotic Cells,"[10]; 10 μM, overnight",19.93
same,IC50,[4],3070 nM
same,IC50,[5],906 nM
same,IC50,[6],2660 nM
same,IC50,[7],3040 nM
same,IC50,[8],5910 nM
same,IC50,[9],6240 nM
"CS(=O)(=O)CCNCc1ccc(-c2ccc3ncnc(Nc4ccc(OCc5cccc(F)c5)c(Cl)c4)c3c2)o1 [Lapatinib, reference compound]",inhibition of mammosphere production versus control,"[12]; 1 μM, first experiment",33%
same,number of mammospheres,"[12]; 1 μM, first experiment, control 38±4",26±2 mammospheres
same,inhibition of mammosphere production versus control,"[12]; 1 μM, separate experiment",55%
same,number of mammospheres,[12]; [17],17±4 mammospheres
same,breast cancer stem cells in biopsies,[13],5 % of cells
CCOC(=O)c1ccc(-c2csc3c(=O)cc(N4CCOCC4)oc23)cc1 [Compound 25],IC50,[2],1230 to 3140 nM
same,IC50,[14]; stimulant Bv8,941 nM
same,IC50,[14]; stimulant IGF,2120 nM
same,IC50,[14]; stimulant PBS,564 nM
same,IC50,[14]; stimulant VEGF,332 nM
same,IC50,[15]; stimulant Bv8,699 nM
same,IC50,[15]; stimulant IGF,4390 nM
same,IC50,[15]; stimulant PBS,918 nM
same,IC50,[15]; stimulant VEGF,498 nM
same,inhibition of mammosphere production versus control,"[12]; 1 μM, separate experiment",approximately 69%
same,number of mammospheres,[12]; [17],12±3 mammospheres
same,inhibition of mammosphere production versus control,"[12]; 10 μM, separate experiment",approximately 82%
same,number of mammospheres,"[12]; 10 μM, separate experiment, control 32±6",7±2 mammospheres
Nc1cccc(-c2csc3c(=O)cc(N4CCOCC4)oc23)c1 [Compound 11],IC50,[1]; [16],6320 nM
same,IC50,[2],6290 nM
CS(=O)(=O)c1ccc(-c2csc3c(=O)cc(N4CCOCC4)oc23)cc1 [Compound 13],IC50,[1]; [16],5300 nM
same,IC50,[2],15300 nM
